Results on three molecules are retold here after patent US8299065B2, “Antibacterial condensed thiazoles” (Biota Europe Ltd., priority 2007, dated 2012).

The subject of data set [1] is Enterococcus faecalis ATCC 29212. Briefly: MIC testing against Enterococcus faecalis ATCC 29212. As to conditions: ATCC29212, read-out: MICs against Enterococcus faecalis, Activity. In kind it is cell-based. The method, then:
(§1) Minimum Inhibitory Concentration (MIC) Testing Compounds of this invention were tested for antimicrobial activity by susceptibility testing in liquid or on solid media. MICs for compounds against each strain were determined by the broth microdilution or agar dilution method according to the guidelines of the Clinical Laboratories and Standards Institute, formerly the National Committee for Clinical Laboratory Standards (Clinical Laboratories and Standards Institute. Methods for Dilution Antimicrobial Susceptibility Tests for Bacteria That Grow Aerobically; Approved Standard—Seventh Edition. Document M7-A7. CLSI, Wayne, Pa., 2006; Clinical Laboratories and Standards Institute. Methods for Antimicrobial Susceptibility Testing of Anaerobic Bacteria; Approved Standard—Sixth Edition. Document M11-A6. CLSI, Wayne, Pa., 2004).

The test system of data set [2] is Enterococcus faecalis (VRE) ATCC 51299. In words: MIC testing, various bacteria. In kind it is cell-based. The method, then: (§2) Minimum Inhibitory Concentration (MIC) Testing
as §1, with “Compounds” for “Minimum Inhibitory Concentration (MIC) Testing Compounds”
(§3) Some of the Example compounds were also tested for activity against other bacterial species.

The test system of data set [3] is Enterococcus faecium (VRE) ATCC 700221. In words: MIC testing, various bacteria. In kind it is cell-based. The method, then: as §2
as §1, with “Compounds” for “Minimum Inhibitory Concentration (MIC) Testing Compounds”
as §3

In data set [4] the test system is Haemophilus influenzae ATCC 49247. Briefly: MIC testing, various bacteria. In kind it is cell-based. As to conditions: ATCC49247. The method, then: as §2
as §1, with “Compounds” for “Minimum Inhibitory Concentration (MIC) Testing Compounds”
as §3

Data set [5] relates to Moraxella catarrhalis ATCC 25240. Briefly: MIC testing, various bacteria. The note with it: ATCC25240. Type of data set: cell-based. The method, then: as §2
as §1, with “Compounds” for “Minimum Inhibitory Concentration (MIC) Testing Compounds”
as §3

Data set [6] concerns Staphylococcus aureus ATCC 29213. Briefly: MIC testing, various bacteria. In kind it is cell-based. As to conditions: ATCC29213. The method, then:
as §2
as §1, with “Compounds” for “Minimum Inhibitory Concentration (MIC) Testing Compounds”
as §3

Data set [7] has as its system Staphylococcus epidermidis ATCC 12228. In words: MIC testing, various bacteria. Type of data set: cell-based. As to conditions: ATCC12228. The method, then:
as §2
as §1, with “Compounds” for “Minimum Inhibitory Concentration (MIC) Testing Compounds”
as §3

Data set [8] concerns Staphylococcus haemolyticus ATCC 29970. In words: MIC testing, various bacteria. In kind it is cell-based. As to conditions: ATCC29970. The method, then: as §2
as §1, with “Compounds” for “Minimum Inhibitory Concentration (MIC) Testing Compounds”
as §3

Data set [9] has as its system Streptococcus agalactiae ATCC 13813. Briefly: MIC testing, various bacteria. Type of data set: cell-based. As to conditions: ATCC13813. The method, then: as §2
as §1, with “Compounds” for “Minimum Inhibitory Concentration (MIC) Testing Compounds”
as §3

The subject of data set [10] is Streptococcus mutans ATCC 35668. Briefly: MIC testing, various bacteria. As to conditions: ATCC35668. In kind it is cell-based. The method, then: as §2
as §1, with “Compounds” for “Minimum Inhibitory Concentration (MIC) Testing Compounds”
as §3

For data set [11], the system named is Streptococcus pneumoniae ATCC 49619. Briefly: MIC testing, various bacteria. Type of data set: cell-based. As to conditions: ATCC49619. The method, then:
as §2
as §1, with “Compounds” for “Minimum Inhibitory Concentration (MIC) Testing Compounds”
as §3

Data set [12] has as its system Streptococcus pyogenes ATCC 51339. In words: MIC testing, various bacteria. Type of data set: cell-based. As to conditions: ATCC51339. The method, then:
as §2
as §1, with “Compounds” for “Minimum Inhibitory Concentration (MIC) Testing Compounds”
as §3

Data set [13] relates to Enterococcus faecalis clinical isolates. Briefly: MIC testing, clinical isolates. In kind it is cell-based. As to conditions: 10 clinical isolates. The method, then:
as §1, with “2004). Some of the Example compounds were also tested for activity against clinical isolates of various bacterial species.” for “2004).”

Data set [14] concerns Enterococcus faecium clinical isolates. In words: MIC testing, clinical isolates. In kind it is cell-based. The note with it: 10 clinical isolates. The method, then:
as §1, with “2004). Some of the Example compounds were also tested for activity against clinical isolates of various bacterial species.” for “2004).”

Data set [15] deals with Propionibacterium acnes clinical isolates. In words: MIC testing, clinical isolates. In kind it is cell-based. As to conditions: 5 clinical isolates. The method, then:
as §1, with “2004). Some of the Example compounds were also tested for activity against clinical isolates of various bacterial species.” for “2004).”

The test system of data set [16] is Staphylococcus epidermidis clinical isolates. Briefly: MIC testing, clinical isolates. Type of data set: cell-based. The note with it: 10 clinical isolates. The method, then: as §1, with “2004). Some of the Example compounds were also tested for activity against clinical isolates of various bacterial species.” for “2004).”
For data set [17], the system named is Staphylococus aureus clinical isolates. In words: MIC testing, clinical isolates. In kind it is cell-based. As to conditions: 10 clinical isolates. The method, then:
as §1, with “2004). Some of the Example compounds were also tested for activity against clinical isolates of various bacterial species.” for “2004).”

Data set [18] relates to Streptococcus pneumoniae clinical isolates. In words: MIC testing, clinical isolates. In kind it is cell-based. The note with it: 10 clinical isolates. The method, then: as §1, with “2004). Some of the Example compounds were also tested for activity against clinical isolates of various bacterial species.” for “2004).”
For data set [19], the system named is Streptococcus pyogenes clinical isolates. In words: MIC testing, clinical isolates. As to conditions: 10 clinical isolates. In kind it is cell-based. The method, then: as §1, with “2004). Some of the Example compounds were also tested for activity against clinical isolates of various bacterial species.” for “2004).”

≈ marks a conversion by molar mass, not a printed value.

Turning to `CCNC(=O)Nc1nc2cc(-c3ccn(C)c(=O)c3)ccc2s1` [Example 3, 1-Ethyl-3-(5-(1-methyl-2-oxo-1,2-dihydro-pyridin-4-yl)-benzothiazol-2-yl)urea], the MIC is 0.25 to 1 µg/mL (≈ 0.761 to 3.05 µM) in [1]; 2 to 16 µg/mL (≈ 6.09 to 48.7 µM) in [2]; 2 to 16 µg/mL (≈ 6.09 to 48.7 µM) in [3]; 2 to 16 µg/mL (≈ 6.09 to 48.7 µM) in data set [4]; 0.25 to 1 µg/mL (≈ 0.761 to 3.05 µM) in data set [5]; 0.25 to 1 µg/mL (≈ 0.761 to 3.05 µM) in data set [6]. The MIC was 0.25 to 1 µg/mL (≈ 0.761 to 3.05 µM) in data set [7]; 0.25 to 1 µg/mL (≈ 0.761 to 3.05 µM) in data set [8]; 0.25 to 1 µg/mL (≈ 0.761 to 3.05 µM) in data set [9]; 0.25 to 1 µg/mL (≈ 0.761 to 3.05 µM) in data set [10]; less than 0.25 µg/mL in data set [11]; 0.25 to 1 µg/mL (≈ 0.761 to 3.05 µM) in data set [12].

By melting point is commonly meant the temperature of the solid-liquid transition. Consider `CCNC(=O)Nc1nc2cc(-c3cccnc3)c(F)cc2s1` [Example 4, 1-Ethyl-3-(6-fluoro-5-pyridin-3-yl-benzothiazol-2-yl)-urea], for which the melting point amounted to 199.1 °C. In addition, in [1], the MIC fell in the range of 0.25 to 1 µg/mL (≈ 0.79 to 3.16 µM).

One may read the MIC90 as an inhibitory concentration at the 90% level, which refers to growth in some studies and to a panel of isolates in others. Low values mean higher susceptibility, high ones lower susceptibility. `CCNC(=O)Nc1nc2cc(-c3cc(C)n(Cc4cccnc4)c(=O)c3)c(F)cc2s1` [Example 49, 1-ethyl-3-(6-fluoro-5-(6-methyl-2-oxo-1-(pyridin-3-ylmethyl)-1,2-dihydropyridin-4-yl)benzo[d]thiazol-2-yl)urea]: in data set [1], the MIC lay within 0.25 to 1 µg/mL (≈ 0.571 to 2.29 µM). The MIC90 in data set [13] was found to be 0.25 µg/mL (≈ 0.571 µM); in [14], 0.5 µg/mL (≈ 1.14 µM); in data set [15] (Cutibacterium acnes), 1 µg/mL (≈ 2.29 µM); in [16], 0.03 µg/mL (≈ 0.0686 µM); in data set [17], 0.06 µg/mL (≈ 0.137 µM); in data set [18] it was 0.015 µg/mL (≈ 0.0343 µM). In [19], this molecule had an MIC90 of 0.25 µg/mL (≈ 0.571 µM). Moreover, the MIC range is 0.06 to 0.5 µg/mL in [13]; 0.25 to 0.5 µg/mL in data set [14]; 1 µg/mL (≈ 2.29 µM) in data set [15]; 0.008 to 0.06 µg/mL in [16]; 0.03 to 0.12 µg/mL in [17]; 0.008 to 0.03 µg/mL in data set [18]. Moreover, the MIC range in data set [19] lay within 0.12 to 0.5 µg/mL.
